In patent EP4506015A1, “COMBINATION OF A MPS1 INHIBITOR AND AN ANTIBODY DRUG CONJUGATE” (Nerviano Medical Sciences S.r.l., priority 2023, dated 2025):

System: LS411N human colorectal cancer cells
Experiment: LS411N colorectal cancer xenograft: tumor growth inhibition, tumor growth delay and tumor regressions
Type: in vivo, Balb/c-nude female mice
Conditions: for TGI: Day 18, vs vehicle; for Median Time to 500 mm3: study cut-off Day 67; for Tumor regressions at day 67: animals with regression of n=10 mice/group; for T/C: median time to 500 mm3, treated vs vehicle; for Tumor growth delay: time to 500 mm3 vs vehicle
Method: LS411N human colorectal cancer cells were maintained in RPMI-1640 cell culture medium supplemented with 10% fetal bovine serum at 37°C in an atmosphere of 5% CO2 in air. The cells in exponential growth phase were harvested and counted. Balb/c-nude female mice were inoculated subcutaneously at the right flank with 5x10^6 LS411N cells in 0.2 ml of PBS mixed with Matrigel (1:1) for tumor development. Six days after cell injection, animals having a tumor volume of about 200 mm^3 were randomized and allocated to 9 experimental groups (n=10 mice/group) for treatment with vehicle, compound of formula (II) at 13 mg/kg, compound of formula (II) at 20 mg/kg, tisotumab vedotin at 1 mg/kg, tisotumab vedotin at 4 mg/kg and the combinations of the two doses of compound of formula (II) with the two doses of tisotumab vedotin. Compound of formula (II) was administered intravenously every 4 days for 7 times (Days 0, 4, 8, 12, 16, 20 and 24) and tisotumab vedotin was administered intravenously once a week for two weeks (Days 0 and 7). On Day 0, tisotumab vedotin was given first and, after 1h, compound of formula (II) was administered).
Effect of treatment on tumor growth and body weight was evaluated twice times per week. Tumors were measured in two dimensions using a caliper, and the tumor volume was expressed in mm^3 using the formula: V=(L x W2)/2, where V is tumor volume, L is tumor length (the longest tumor dimension) and W is tumor width (the longest tumor dimension perpendicular to L).
From Day 18 onwards, some animals in the vehicle treated groups had to be euthanized due to tumors reaching the ethical endpoint (3000 mm^3), therefore tumor growth inhibition (TGI) for each treatment group was calculated on Day 18, when all the animals in the vehicle group were available for the calculation of the mean tumor volume.
Figure 2 and Figure 3a and Figure 3b show the tumor growth curves of individual animals in each group and the Kaplan-Meier curves representing the time needed for tumors to reach/exceed 500 mm^3, respectively. Study cut-off Day 67.
To better evaluate the combination benefit, tumor growth delay was evaluated as the time needed for tumors to reach/exceed a defined tumor volume (Table 2). The median time for tumors to reach 500 mm^3 was 7 days, 11 days, 14 days, 28 days and 37 days for vehicle, Compound of formula (II) 13 mg/kg, Compound of formula (II) 20 mg/kg, tisotumab vedotin 1 mg/kg and tisotumab vedotin 4 mg/kg single agent groups, respectively. All the combinations induced a strong tumor growth delay when compared to vehicle and single agent treated arms. The median time for tumors to reach 500 mm^3 in the combination at the lower doses of both agents, Compound of formula (II) 13 mg + tisotumab vedotin 1 mg/kg, was 65 days. For the other combination groups the median time for tumors to reach 500 mm^3 had not yet been reached at Day 67. The effect of the combination on tumor growth delay was more than additive for all the combination groups.

[1] = Compound of formula (II) 13 mg/kg iv every 4 days x7
[2] = Compound of formula (II) 13 mg/kg
[3] = Compound of formula (II) 20 mg/kg iv every 4 days x7
[4] = Compound of formula (II) 20 mg/kg
[5] = tisotumab vedotin 1 mg/kg iv Days 0 and 7
[6] = tisotumab vedotin 4 mg/kg iv Days 0 and 7

## CCc1cccc(CC)c1NC(=O)c1nn(C)c2c1CCc1cnc(Nc3ccc(N4CCC(N(C)C)CC4)cc3OC)nc1-2 [Compound of formula (II), N-(2,6-diethylphenyl)-8-({4-[4-(dimethylamino)piperidin-1-yl]-2-methoxyphenyl}-amino)-1-methyl-4,5-dihydro-1H-pyrazolo[4,3-h]quinazoline-3-carboxamide]
[1]
  Mean Tumor Volume (mm^3) Day 18: 751 mm^3
  Median Time to 500 mm3: 11 days
Compound of formula (II) 13 mg/kg iv every 4 days x7, 13 mg/kg
  TGI: 46.4%
[2]
  Tumor regressions at day 67: 0/10
  T/C: 157%
  Tumor growth delay: 4 days
[3]
  Mean Tumor Volume (mm^3) Day 18: 655 mm^3
  Median Time to 500 mm3: 14 days
Compound of formula (II) 20 mg/kg iv every 4 days x7, 20 mg/kg
  TGI: 52.6%
[4]
  Tumor regressions at day 67: 0/10
  T/C: 200%
  Tumor growth delay: 7 days

## Tisotumab vedotin
[5]
  control of tumor growth (individual tumor growth curves): controlled tumor growth initially, but between Days 14 and 20 all tumors started growing
  Mean Tumor Volume (mm^3) Day 18: 325 mm^3
  TGI: 76.8%
  Median Time to 500 mm3: 28 days
Tisotumab vedotin 1 mg/kg
  Tumor regressions at day 67: 0/10
  T/C: 400%
  Tumor growth delay: 21 days
[6]
  control of tumor growth (individual tumor growth curves): controlled tumor growth and induced tumor regressions initially, but after Day 20 tumors started to regrow as well
  Mean Tumor Volume (mm^3) Day 18: 147 mm^3
  TGI: 89.5%
  Median Time to 500 mm3: 37 days
Tisotumab vedotin 4 mg/kg
  Tumor regressions at day 67: 0/10
  T/C: 529%
  Tumor growth delay: 30 days
